Read-outs that look alike come from different tables or passages of the source.

This is an account of results in patent US20150079071A1, “NON-CATALYTIC DOMAIN TARGETS IN MATRIX METALLOPROTEASE PROTEINS FOR CANCER THERAPIES” (THE REGENTS OF THE UNIVERSITY OF CALIFORNIA, priority 2012, published 2015).

What all share (assay type): cell-based, mouse
The subject of one assay is SCp2 cells. The assay is described as follows: Invasion assay in Boyden chambers. Conditions: for invasion of FL and EA-SCp2 cells: SCp2 overexpressing MMP3 constructs containing the hemopexin domain; for invasion of dPEX-SCp2 or control cells: SCp2 with hemopexin-deleted MMP3 or control vector. The procedure:
Cell culture inserts (8 μm, 24-well format; BD Biosciences) were evenly coated with 20 μL of diluted (1:5 in DMEM/F-12 medium) Matrigel (BD Biosciences). Cells (1×10^5) in 200 μL of DMEM/F-12 medium or different CM (as indicated in each experiment) were added to the upper compartment of the chamber. The lower compartment of the chamber was filled with 300 μL of medium containing 10% FBS as a chemoattractant. After 48 h of incubation at 37° C., the top side of the insert was cleared from noninvasive cells with a cotton swab and washed with serum-free DMEM/F-12. The remaining (invasive) cells at the lower surface of the filter were fixed and stained with a solution of Coomassie Blue 0.125% in methanol:acetic acid:H2O (45%:10%:45% [v/v/v]) for 15 min. Invasive cells were scored by counting 10×20 magnification fields per filter with a Zeiss Imager Z1 microscope using a 20× objective. Mouse embryonic fibroblast NIH/3T3 cells were routinely included as a positive control. Results are expressed as mean±SD from three independent experiments.

The test system of assay [1] is primary mammary organoids. The assay is described as follows: Branching morphogenesis assay of primary mammary organoids in 3D Col-1 gels. The procedure:
Primary organoids or clustered EpH4 cells were embedded in 3D Col-1 gels as previously published (Simian et al. 2001; Mori et al. 2013). In brief, acid-solubilized Col-1 solution was mixed gently on ice with 1 vol of 10×DMEM/F-12 (pH adjusted to 7.4 with 0.1 M NaOH), and the concentration was adjusted to 3 mg/mL with DMEM/F-12. A basal layer of 80 μL of Col-1 was poured into each well of an eight-well chambered coverglass (155409, Thermo Scientific) and allowed to gel for 5 min at 37° C. A second layer of 200 μL of Col-1 containing 150 organoids or EpH4 clusters was added to each well and placed immediately at 37° C. After gelation, 400 μL of chemically defined medium (DMEM/F-12 containing 1% insulin/transferrin/selenium, 1% penicilin/streptomycin) with 9 nM TGFα (Sigma) or 9 nM bFGF (Sigma) was added to each well (unless stated otherwise) and replaced every other day.
After 3 d of culture, gels were fixed with 4% formalin for 30 min and stained with phalloidin and DAPI for 1 h. Structures were imaged with an upright Zeiss LSM710 using a 0.8 NA 20× air objective. […] The number of extending processes and their average length were determined using the Imaris program (Bitplane). […] Fifty structures were counted per condition, and the experiments were executed at least three times.

For another assay, the system named is Erk. The assay is described as follows: Immunoblot of phospho-Erk / total Erk (MAPK activity). The note with it: EpH4 cells in CL-1 gels.
In assay [2] the test system is primary mammary organoids and EpH4 cells. The assay is described as follows: Branching morphogenesis (invasion/branching) assay in collagen-1 gels. The note with it: 9 nM FGF2, inhibitors 40 μM; for invasion/branching in sparse CL-1 gels: sparse CL-1 1 mg/ml. The procedure: Single cells were removed by centrifugation and the clusters were then washed three times with DMEM/F12. Cell clusters and primary organoids were embedded in collagen-1 gels. Briefly, acid-extracted type I collagen (Koken, Tokyo, Japan) was mixed gently on ice (8 vol) with 1 vol of 10×DMEM/F12, then pH is adjusted to 7.4 with 0.1N NaOH. Collagen solution was added into each well of a 48-well plate, which was then incubated at 37° C. to allow gelation. EpH4 cell clusters or primary organoids were suspended in collagen at 3 mg/ml or 1 mg/ml, poured onto the basal collagen layer and placed at 37° C. for gelation. After gelation of the collagen, growth medium containing 9 nM FGF2 was added to the wells. Branching morphogenesis was assessed using a Nikon Diaphot 300 microscope and clusters were scored as positive when displaying three or more branches of length at least half the diameter of the central cell cluster.

The subject of the next assay is Mmp14 and Itgb1. The assay is described as follows: Immunoblot of Mmp14 and Itgb1 levels in EpH4 cells. The procedure: Samples were lysed using modified RIPA buffer (50 mM HEPES pH 7.4, 150 mM NaCl, 10% glycerol, 1% Triton X-100, 10 mM sodium pyrophosphate containing 1.5 mM MgCl2, 1 mM EGTA, 1% sodium deoxycholate, 0.25 mM Na3VO4, 100 mM NaF and proteinase inhibitor cocktail (EMD Millipore, Billerica, USA)). Protein concentration was determined using the BCA Protein Assay kit (Thermo Scientific, Waltham, USA), following the manufacturer's instructions. Protein samples (10 μg) were mixed with Laemmeli sample buffer and heated at 95° C. for 5 minutes. Samples were loaded into a pre-cast 4-20% tris-glycine polyacrylamide gel (Invitrogen) using the NOVEX system (Invitrogen). Resolved proteins were transferred to nitrocellulose membrane (Whatman, Maidstone, UK) followed by blocking in PBS, 0.05% Tween-20 with 5% w/v non-fat dry milk for 1 hour at room temperature (RT). Membranes were incubated overnight at 4° C. in 5% BSA, 0.1% Tween-20 in PBS containing antibodies that recognize either phosphorylated Erk1/2, total Erk1/2 (Cell Signaling). Anti-Mmp14 (Abcam, Cambridge, USA), anti-Itgb1 (Santa Cruz Biotechnology, Santa Cruz, USA), anti-Itgb1 p788/789 (Abcam), anti-LAM A/C (Santa Cruz Biotechnology), anti-Actin (Abcam), anti-FLAG (Sigma) and rabbit IgG (Sigma) antibodies were used for immunoblotting. Primary antibodies were detected with HRP conjugated anti-IgG (Thermo) and the Pierce SuperSignal detection kit. Chemiluminescence ignal was captured with a FluorChem 8900 analysis system (Alpha Innotech, San Leandro, USA).

Method for Erk: Samples were lysed using modified RIPA buffer (50 mM HEPES pH 7.4, 150 mM NaCl, 10% glycerol, 1% Triton X-100, 10 mM sodium pyrophosphate containing 1.5 mM MgCl2, 1 mM EGTA, 1% sodium deoxycholate, 0.25 mM Na3VO4, 100 mM NaF and proteinase inhibitor cocktail (EMD Millipore, Billerica, USA)). Protein concentration was determined using the BCA Protein Assay kit (Thermo Scientific, Waltham, USA), following the manufacturer's instructions. Protein samples (10 μg) were mixed with Laemmeli sample buffer and heated at 95° C. for 5 minutes. Samples were loaded into a pre-cast 4-20% tris-glycine polyacrylamide gel (Invitrogen) using the NOVEX system (Invitrogen). Resolved proteins were transferred to nitrocellulose membrane (Whatman, Maidstone, UK) followed by blocking in PBS, 0.05% Tween-20 with 5% w/v non-fat dry milk for 1 hour at room temperature (RT). Membranes were incubated overnight at 4° C. in 5% BSA, 0.1% Tween-20 in PBS containing antibodies that recognize either phosphorylated Erk1/2, total Erk1/2 (Cell Signaling). […] Primary antibodies were detected with HRP conjugated anti-IgG (Thermo) and the Pierce SuperSignal detection kit. Chemiluminescence ignal was captured with a FluorChem 8900 analysis system (Alpha Innotech, San Leandro, USA).

As for `CCc1cc(-c2n[nH]c(C)c2-c2ccc3c(c2)OCCO3)c(O)cc1O` [CCT018159], in the assay with SCp2 cells, the “invasion of FL and EA-SCp2 cells” value is recorded as “reduced invasion”; the “invasion of dPEX-SCp2 or control cells” value was “no significant effect”.

Take “recombinant HSP90β: recombinant HSP90β protein purchased from Calbiochem/EMD Millipore”: in the assay on SCp2 cells, the “invasion of FL and EA-SCp2 cells” value is “enhanced invasion significantly”; the “invasion of dPEX-SCp2 or control cells” value is “did not raise the invasive potential”. Besides, the “invasion and branching of mammary organoids” value in assay [1] (3 mg/mL Col-1, 3 d, TGFα) is listed as “most exuberant branched structures”. Further, the “spatial network per organoid” value in assay [1] (organoids overexpressing FL MMP3, 3 mg/mL Col-1, 3 d) is given as “longest spatial network observed so far”.

On to `CNC(=O)[C@H](Cc1c[nH]c2ccccc12)NC(=O)[C@@H](CC(=O)NO)CC(C)C` [GM6001], for which, in the assay on Erk, the “MAPK activation (pErk/total Erk)” value was “did not change”. Besides, the “invasion/branching in dense CL-1 gels” value in assay [2] (dense CL-1 3 mg/ml) is reported as “completely abrogated”. Also, in assay [2], the “invasion/branching in sparse CL-1 gels” value was “still invaded”.

Regarding `COc1cccc(-c2cc(=O)c3ccccc3o2)c1N` [PD98059], the “invasion/branching in sparse CL-1 gels” value in assay [2] is listed as “reduced invasion/branching”. Further, in the assay on Mmp14 and Itgb1, the Itgb1 level result was “reduced” and the Mmp14 level entry is “reduced”. In addition, in the assay on Mmp14 and Itgb1 (listed as PD95089), the Itgb1 level entry is recorded as “reduced expression” and the Mmp14 level result was “reduced expression”.
